Laboratory results: patent US20030083323A1, “Oral use of dehydroepiandrosterone and some of its derivatives as pigmentation regulators” (priority 2000, published 2003)
Values joined by “and” are separate entries in the source; they are usually repeats but may differ in a detail not shown here. Equal values may be shown once.

Key:
human skin = test: Depigmenting power on the skin of DHEA administered orally, colorimetry b* (Minolta CR200 chromameter), randomized double-blind clinical study versus placebo; format: in vivo; settings: oral DHEA 50 mg per day, 12 months, healthy female volunteers 60 to 80 years old; p=0.006, Wilcoxon test
Procedure: The evaluation was carried out using a randomized double-blind clinical study on 140 individuals. The inclusion criteria were as follows: healthy female volunteers free of any severe pathological condition and 60 to 80 years old.
The treatment consisted, for 12 months, of a daily dose of 50 mg of DHEA, taken in the morning, in the form of a breakable tablet, for half the individuals, or of a placebo for the other half of the individuals.
The skin pigmentation is measured at the start of treatment (TO) and after 12 months (T12), by colorimetry using a Minolta CR200 chromameter (Minolta, 365, route de Saint-Germain 78424 Carrières sur Seine).
This machine describes the colors in a three-dimensional space, using the system of coordinates L, a* and b* and recommended by the CIE in 1976. In this system, L* expresses the luminance or clarity of the color (0 corresponding to black and 100 to white), a is the component for separation between green (negative) and red (positive) and b*, which varies from blue (negative) to yellow (positive) expresses the pigmentation of the skin. The latter parameter was used to evaluate the change in skin color during the treatment.
The machine is calibrated on a standard “white” (surface provided with the machine) at the beginning of each day of measurement and the calibration is controlled throughout the day. […]

[1] = system: hair (degree of canities); test: Effect of oral DHEA on canities, questionnaire at end of randomized double-blind clinical study versus placebo; format: in vivo, human; settings: oral DHEA 50 mg daily, 6 months
Procedure: The evaluation was carried out using a randomized double-blind clinical study on 140 individuals. The inclusion criteria were as follows: healthy male volunteers free of any severe pathological condition and 60 to 80 years old.
The treatment consisted, for 6 months, of a daily dose of 50 mg of DHEA, taken in the morning, in the form of a breakable tablet, for half the individuals, or of its placebo for the other half of the individuals.
At the end of the 6 months of treatment, the individuals answered a series of questions concerning the state of their hair and the effect of the treatment on various parameters, in particular regarding their degree of canities (improvement, worsening or no change in the number of white hairs).
The statistical analysis is performed with Wilcoxon tests.

[2] = healthy male volunteers 60 to 80 years old, total 64

C[C@]12CC[C@H](O)CC1=CC[C@@H]1[C@@H]2CC[C@]2(C)C(=O)CC[C@@H]12 [DHEA, dehydroepiandrosterone]
skin pigmentation (b*) compared to the placebo group (human skin): significant decrease in pigmentation | degree of canities: Improvement (number of individuals, number of white hairs decreased) [1, 2]: 5 | degree of canities: No change (number of individuals) [1, 2]: 59 | degree of canities: Worsening (number of individuals) [1, 2]: no individual experienced a worsening and 0 | overall effect on hair pigmentation versus placebo ([1]; difference between treatments significant, p=0.0094, Wilcoxon test): propigmenting effect on hair
